Experimental data published in ChEMBL document CHEMBL4616683, “Inhibitors of Hypoxia-Inducible Factors as Treatment for Cancer” (ACS Med Chem Lett, 2020).

Key:
[1] = biological target: T1, Endothelial PAS domain-containing protein 1 (Homo sapiens, UniProt Q99814)
Description: Inhibition of human recombinant His6Gb1-tagged HIF2alpha PAS B domain (240 to 350 residues)/human recombinant His6/FLAG-tagged ARNT PAS B domain (356 to 470 residues) interaction incubated for 15 mins by AlphaScreen assay

[2] = biological target: T1, Endothelial PAS domain-containing protein 1; remark: listed apart in the source
Description: Inhibition of HIF2-alpha in human 786-0 cells harboring HRE-Luc2P reporter construct incubated for 48 hrs by ONE-Glo EX reagent based luminescence assay

T1 sequence (Q99814 whole entry, the tested form may be a part): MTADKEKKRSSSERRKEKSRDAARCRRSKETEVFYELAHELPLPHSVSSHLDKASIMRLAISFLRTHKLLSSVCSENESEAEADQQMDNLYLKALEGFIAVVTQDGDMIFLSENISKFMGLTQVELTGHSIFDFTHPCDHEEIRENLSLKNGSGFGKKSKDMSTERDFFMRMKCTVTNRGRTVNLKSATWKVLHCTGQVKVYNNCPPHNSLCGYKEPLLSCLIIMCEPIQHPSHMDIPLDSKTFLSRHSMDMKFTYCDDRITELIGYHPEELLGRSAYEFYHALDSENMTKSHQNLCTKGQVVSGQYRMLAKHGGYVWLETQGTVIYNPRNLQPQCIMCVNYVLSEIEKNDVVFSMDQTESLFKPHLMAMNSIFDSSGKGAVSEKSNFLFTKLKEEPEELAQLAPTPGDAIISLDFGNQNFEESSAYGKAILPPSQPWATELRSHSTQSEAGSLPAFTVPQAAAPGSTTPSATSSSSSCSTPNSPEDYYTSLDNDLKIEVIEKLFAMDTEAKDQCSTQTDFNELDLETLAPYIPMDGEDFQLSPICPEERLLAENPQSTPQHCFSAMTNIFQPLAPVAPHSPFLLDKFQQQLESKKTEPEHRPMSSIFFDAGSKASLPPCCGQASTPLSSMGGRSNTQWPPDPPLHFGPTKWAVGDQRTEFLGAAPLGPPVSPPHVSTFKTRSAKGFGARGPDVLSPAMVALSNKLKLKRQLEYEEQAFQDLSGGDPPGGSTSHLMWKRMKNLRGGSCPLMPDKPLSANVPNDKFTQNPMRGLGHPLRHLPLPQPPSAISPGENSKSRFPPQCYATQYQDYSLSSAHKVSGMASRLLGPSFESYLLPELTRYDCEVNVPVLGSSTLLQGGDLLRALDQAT

IC50 [1]: > 1 µM
IC50 [2]: > 1 µM
Structure (SMILES): Cn1nc(C(F)(F)F)cc1-c1sc(S(C)(=O)=O)c2c1CCC(F)(F)[C@H]2O
